In PubChem BioAssay AID1745844 (Carcinogenic Potency Database (CPDB), 2022):
The source made the active and inactive calls. How the calls were made is not given here.

Test system: rodent lifetime carcinogenesis bioassay, tumor incidence TD50
Assay: carcinogenic potency in animals, long-term in vivo studies, CPDB compilation (AID 1745844)

## ClC=CCCl
mouse, strain B6C3F1, females, by gavage, site: any site (literature study), lesion: several types, types named in the paper, dosed 104 weeks, study length 106 weeks
  TD50: 34.9 mg/kg/day
mouse, strain B6C3F1, females, by gavage, site: liver, lesion: hepatocellular adenoma + hepatocellular carcinoma + neoplastic nodule, dosed 104 weeks, study length 106 weeks
  TD50: 89.3 mg/kg/day
mouse, strain B6C3F1, females, by gavage, site: liver, lesion: hepatocellular adenoma + hepatocellular carcinoma, dosed 104 weeks, study length 106 weeks
  TD50: 89.3 mg/kg/day
mouse, strain B6C3F1, females, by gavage, site: liver, lesion: hepatocellular adenoma, dosed 104 weeks, study length 106 weeks
  TD50: 215 mg/kg/day
mouse, strain B6C3F1, females, by gavage, site: lung + stomach + urinary bladder, lesion: alveolar/bronchiolar adenoma + squamous-cell carcinoma + squamous-cell papilloma + transitional-cell carcinoma, dosed 104 weeks, study length 106 weeks
  TD50: 36.3 mg/kg/day
mouse, strain B6C3F1, females, by gavage, site: lung, lesion: alveolar/bronchiolar adenoma + alveolar/bronchiolar carcinoma, dosed 104 weeks, study length 106 weeks
  TD50: 182 mg/kg/day
mouse, strain B6C3F1, females, by gavage, site: lung, lesion: alveolar/bronchiolar adenoma, dosed 104 weeks, study length 106 weeks
  TD50: 149 mg/kg/day
mouse, strain B6C3F1, females, by gavage, site: stomach, lesion: squamous-cell carcinoma + squamous-cell papilloma, dosed 104 weeks, study length 106 weeks
  TD50: 344 mg/kg/day
mouse, strain B6C3F1, females, by gavage, site: urinary bladder, lesion: transitional-cell carcinoma, dosed 104 weeks, study length 106 weeks
  TD50: 49.6 mg/kg/day
mouse, strain B6C3F1, females, in feed, site: liver, lesion: hepatocellular adenoma, dosed 104 weeks, study length 104 weeks
  carcinogen call: negative (inactive)
mouse, strain B6C3F1, females, in feed, site: liver, lesion: hepatocellular carcinoma, dosed 104 weeks, study length 104 weeks
  carcinogen call: negative (inactive)
mouse, strain B6C3F1, females, in feed, site: lung, lesion: alveolar/bronchiolar adenoma, dosed 104 weeks, study length 104 weeks
  carcinogen call: negative (inactive)
mouse, strain B6C3F1, females, in feed, site: lung, lesion: alveolar/bronchiolar carcinoma, dosed 104 weeks, study length 104 weeks
  carcinogen call: negative (inactive)
mouse, strain B6C3F1, females, in feed, site: stomach, lesion: one or several types, types not named, dosed 52 weeks, study length 52 weeks
  carcinogen call: negative (inactive)
mouse, strain B6C3F1, females, inhaled, site: any site (literature study), lesion: several types, types named in the paper, dosed 104 weeks, study length 104 weeks
  carcinogen call: negative (inactive)
mouse, strain B6C3F1, females, inhaled, site: liver, lesion: several types, types named in the paper, dosed 104 weeks, study length 104 weeks
  TD50: 1810 mg/kg/day (inactive)
mouse, strain B6C3F1, females, inhaled, site: lung, lesion: alveolar/bronchiolar adenoma, dosed 104 weeks, study length 104 weeks
  carcinogen call: negative (inactive)
mouse, strain B6C3F1, females, inhaled, site: lung, lesion: one or several types, types not named, dosed 52 weeks, study length 52 weeks
  carcinogen call: negative (inactive)
mouse, strain B6C3F1, females, inhaled, site: mesenteric lymph node, lesion: lymphosarcoma, dosed 104 weeks, study length 104 weeks
  carcinogen call: negative (inactive)
mouse, strain B6C3F1, females, inhaled, site: pituitary gland, lesion: adenoma, dosed 104 weeks, study length 104 weeks
  TD50: 19 mg/kg/day (inactive)
mouse, strain B6C3F1, males, by gavage, site: any site (literature study), lesion: several types, types named in the paper, dosed 104 weeks, study length 105 weeks
  TD50: 309 mg/kg/day
mouse, strain B6C3F1, males, by gavage, site: liver, lesion: hepatocellular adenoma + hepatocellular carcinoma + neoplastic nodule, dosed 104 weeks, study length 105 weeks
  TD50: 1930 mg/kg/day
mouse, strain B6C3F1, males, by gavage, site: lung, lesion: alveolar/bronchiolar adenoma + alveolar/bronchiolar carcinoma, dosed 104 weeks, study length 105 weeks
  TD50: 127 mg/kg/day
mouse, strain B6C3F1, males, in feed, site: liver, lesion: hepatocellular adenoma, dosed 104 weeks, study length 104 weeks
  TD50: 78.2 mg/kg/day (inactive)
mouse, strain B6C3F1, males, in feed, site: liver, lesion: hepatocellular carcinoma, dosed 104 weeks, study length 104 weeks
  carcinogen call: negative (inactive)
mouse, strain B6C3F1, males, in feed, site: lung, lesion: alveolar/bronchiolar adenoma, dosed 104 weeks, study length 104 weeks
  TD50: 368 mg/kg/day (inactive)
mouse, strain B6C3F1, males, in feed, site: lung, lesion: alveolar/bronchiolar carcinoma, dosed 104 weeks, study length 104 weeks
  carcinogen call: negative (inactive)
mouse, strain B6C3F1, males, in feed, site: stomach, lesion: one or several types, types not named, dosed 52 weeks, study length 52 weeks
  carcinogen call: negative (inactive)
mouse, strain B6C3F1, males, inhaled, site: any site (literature study), lesion: several types, types named in the paper, dosed 104 weeks, study length 104 weeks
  TD50: 229 mg/kg/day
mouse, strain B6C3F1, males, inhaled, site: lacrimal gland, lesion: cystadenoma, dosed 104 weeks, study length 104 weeks
  TD50: 82.2 mg/kg/day
mouse, strain B6C3F1, males, inhaled, site: lung, lesion: alveolar/bronchiolar adenoma, dosed 104 weeks, study length 104 weeks
  TD50: 118 mg/kg/day
mouse, strain B6C3F1, males, inhaled, site: lung, lesion: one or several types, types not named, dosed 52 weeks, study length 52 weeks
  carcinogen call: negative (inactive)
rat, strain Fischer 344, females, by gavage, site: liver, lesion: hepatocellular adenoma + hepatocellular carcinoma + neoplastic nodule, dosed 104 weeks, study length 106 weeks
  TD50: 168 mg/kg/day
rat, strain Fischer 344, females, by gavage, site: stomach, lesion: squamous-cell papilloma, dosed 104 weeks, study length 106 weeks
  TD50: 176 mg/kg/day
rat, strain Fischer 344, females, by gavage, site: thyroid gland, lesion: follicular-cell adenoma + follicular-cell carcinoma, dosed 104 weeks, study length 106 weeks
  TD50: 137 mg/kg/day
rat, strain Fischer 344, females, in feed, site: liver, lesion: hepatocellular adenoma, dosed 104 weeks, study length 104 weeks
  TD50: 334 mg/kg/day
rat, strain Fischer 344, females, in feed, site: stomach, lesion: one or several types, types not named, dosed 52 weeks, study length 52 weeks
  carcinogen call: negative (inactive)
rat, strain Fischer 344, females, in feed, site: uterus, lesion: endometrial stromal polyp, dosed 104 weeks, study length 104 weeks
  TD50: 61.4 mg/kg/day
rat, strain Fischer 344, females, inhaled, site: any site (literature study), lesion: one or several types, types not named, dosed 52 weeks, study length 52 weeks
  carcinogen call: negative (inactive)
rat, strain Fischer 344, females, inhaled, site: any site (literature study), lesion: several types, types named in the paper, dosed 105 weeks, study length 105 weeks
  carcinogen call: negative (inactive)
rat, strain Fischer 344, females, inhaled, site: liver, lesion: hepatocellular adenoma, dosed 105 weeks, study length 105 weeks
  TD50: 1590 mg/kg/day (inactive)
rat, strain Fischer 344, males, by gavage, site: forestomach + liver + stomach, lesion: squamous-cell papilloma + neoplastic nodule + squamous-cell carcinoma, dosed 104 weeks, study length 106 weeks
  TD50: 33.2 mg/kg/day
rat, strain Fischer 344, males, by gavage, site: forestomach + stomach, lesion: squamous-cell papilloma + squamous-cell carcinoma, dosed 104 weeks, study length 106 weeks
  TD50: 64.1 mg/kg/day
rat, strain Fischer 344, males, by gavage, site: forestomach + stomach, lesion: squamous-cell papilloma, dosed 104 weeks, study length 106 weeks
  TD50: 97 mg/kg/day
rat, strain Fischer 344, males, by gavage, site: liver, lesion: hepatocellular adenoma + hepatocellular carcinoma + neoplastic nodule, dosed 104 weeks, study length 106 weeks
  TD50: 68 mg/kg/day
rat, strain Fischer 344, males, by gavage, site: liver, lesion: hepatocellular carcinoma + neoplastic nodule, dosed 104 weeks, study length 106 weeks
  TD50: 68 mg/kg/day
rat, strain Fischer 344, males, by gavage, site: liver, lesion: neoplastic nodule, dosed 104 weeks, study length 106 weeks
  TD50: 76 mg/kg/day
rat, strain Fischer 344, males, by gavage, site: stomach, lesion: squamous-cell carcinoma, dosed 104 weeks, study length 106 weeks
  TD50: 213 mg/kg/day
rat, strain Fischer 344, males, in feed, site: liver, lesion: hepatocellular adenoma, dosed 104 weeks, study length 104 weeks
  TD50: 100 mg/kg/day
rat, strain Fischer 344, males, in feed, site: liver, lesion: hepatocellular carcinoma, dosed 104 weeks, study length 104 weeks
  TD50: 1360 mg/kg/day
rat, strain Fischer 344, males, in feed, site: stomach, lesion: one or several types, types not named, dosed 52 weeks, study length 52 weeks
  carcinogen call: negative (inactive)
rat, strain Fischer 344, males, inhaled, site: any site (literature study), lesion: one or several types, types not named, dosed 52 weeks, study length 52 weeks
  carcinogen call: negative (inactive)
rat, strain Fischer 344, males, inhaled, site: any site (literature study), lesion: several types, types named in the paper, dosed 105 weeks, study length 105 weeks
  carcinogen call: negative (inactive)
rat, strain Fischer 344, males, inhaled, site: liver, lesion: hepatocellular adenoma, dosed 105 weeks, study length 105 weeks
  carcinogen call: negative (inactive)

## O=Cc1ccco1
hamster, strain Syrian Golden, females, inhaled, site: liver, lesion: one or several types, types not named, dosed 52 weeks, study length 81 weeks
  carcinogen call: negative (inactive)
hamster, strain Syrian Golden, females, inhaled, site: lung, lesion: one or several types, types not named, dosed 52 weeks, study length 81 weeks
  carcinogen call: negative (inactive)
hamster, strain Syrian Golden, males, inhaled, site: liver, lesion: one or several types, types not named, dosed 52 weeks, study length 81 weeks
  carcinogen call: negative (inactive)
hamster, strain Syrian Golden, males, inhaled, site: lung, lesion: one or several types, types not named, dosed 52 weeks, study length 81 weeks
  carcinogen call: negative (inactive)
mouse, strain B6C3F1, females, by gavage, site: forestomach, lesion: squamous-cell papilloma, dosed 103 weeks, study length 104 weeks
  TD50: 920 mg/kg/day
mouse, strain B6C3F1, females, by gavage, site: liver, lesion: hepatocellular adenoma + hepatocellular carcinoma + neoplastic nodule, dosed 103 weeks, study length 104 weeks
  TD50: 377 mg/kg/day
mouse, strain B6C3F1, females, by gavage, site: liver, lesion: hepatocellular adenoma + hepatocellular carcinoma, dosed 103 weeks, study length 104 weeks
  TD50: 377 mg/kg/day
mouse, strain B6C3F1, females, by gavage, site: liver, lesion: hepatocellular adenoma, dosed 103 weeks, study length 104 weeks
  TD50: 364 mg/kg/day
mouse, strain B6C3F1, males, by gavage, site: any site (literature study), lesion: several types, types named in the paper, dosed 103 weeks, study length 104 weeks
  TD50: 165 mg/kg/day
mouse, strain B6C3F1, males, by gavage, site: kidney cortex, lesion: adenoma + carcinoma, dosed 103 weeks, study length 104 weeks
  TD50: 1400 mg/kg/day
mouse, strain B6C3F1, males, by gavage, site: liver, lesion: hepatocellular adenoma + hepatocellular carcinoma + neoplastic nodule, dosed 103 weeks, study length 104 weeks
  TD50: 135 mg/kg/day
mouse, strain B6C3F1, males, by gavage, site: liver, lesion: hepatocellular adenoma + hepatocellular carcinoma, dosed 103 weeks, study length 104 weeks
  TD50: 135 mg/kg/day
mouse, strain B6C3F1, males, by gavage, site: liver, lesion: hepatocellular adenoma, dosed 103 weeks, study length 104 weeks
  TD50: 207 mg/kg/day
mouse, strain B6C3F1, males, by gavage, site: liver, lesion: hepatocellular carcinoma, dosed 103 weeks, study length 104 weeks
  TD50: 219 mg/kg/day
mouse, strain B6C3F1, males, by gavage, site: lung, lesion: alveolar/bronchiolar adenoma + alveolar/bronchiolar carcinoma, dosed 103 weeks, study length 104 weeks
  TD50: 662 mg/kg/day
mouse, strain B6C3F1, males, by gavage, site: subcutaneous tissue, lesion: fibrosarcoma + fibroma + sarcoma, dosed 103 weeks, study length 104 weeks
  TD50: 169 mg/kg/day
mouse, strain B6C3F1, males, by gavage, site: subcutaneous tissue, lesion: fibrosarcoma + fibroma, dosed 103 weeks, study length 104 weeks
  TD50: 190 mg/kg/day
mouse, strain B6C3F1, males, by gavage, site: subcutaneous tissue, lesion: fibrosarcoma + sarcoma, dosed 103 weeks, study length 104 weeks
  TD50: 187 mg/kg/day
mouse, strain B6C3F1, males, by gavage, site: subcutaneous tissue, lesion: fibrosarcoma, dosed 103 weeks, study length 104 weeks
  TD50: 212 mg/kg/day
rat, strain Fischer 344, females, by gavage, site: any site (literature study), lesion: several types, types named in the paper, dosed 103 weeks, study length 105 weeks
  TD50: 194 mg/kg/day (inactive)
rat, strain Fischer 344, males, by gavage, site: any site (literature study), lesion: several types, types named in the paper, dosed 103 weeks, study length 105 weeks
  TD50: 150 mg/kg/day
rat, strain Fischer 344, males, by gavage, site: liver, lesion: cholangiocarcinoma, dosed 103 weeks, study length 105 weeks
  TD50: 683 mg/kg/day

## N=c1ccn2c(n1)O[C@H]1[C@H](O)[C@@H](CO)O[C@H]12
rat, strain Wistar, females, i.p., site: any site (literature study), lesion: one or several types, types not named, dosed 52 weeks, study length 52 weeks
  carcinogen call: negative (inactive)
rat, strain Wistar, females, i.p., site: any site (literature study), lesion: several types, types named in the paper, dosed 104 weeks, study length 104 weeks
  carcinogen call: negative (inactive)
rat, strain Wistar, males, i.p., site: any site (literature study), lesion: one or several types, types not named, dosed 52 weeks, study length 52 weeks
  carcinogen call: negative (inactive)
rat, strain Wistar, males, i.p., site: any site (literature study), lesion: several types, types named in the paper, dosed 104 weeks, study length 104 weeks
  carcinogen call: negative (inactive)
